This passage reports EC50 results from patent US8735398B2 (Bristol-Myers Squibb Company, priority 2009, dated 2014).

As a reminder, the EC50 is the concentration at which the effect is half-maximal.

Like-named read-outs stand apart in the source and are kept apart here.

The experiment relates to HCV 1b genotype. The experiment is described as follows: HCV replicon assay (HCV-neo replicon cells, wild-type). The experiment is classed as cell-based, Hepatitis C virus. To be noted: HCV 1b genotype replicon. The method in brief: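 Inhibition was tested in replicon-bearing cells, both wild-type HCV-neo and lines with NS5A resistance substitutions, using the O'Boyle et al. 2005 replicon method or luciferase-reporter formats.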

Setting [1] is: Hepatitis C virus, class symbol, read-out: EC50 Range against HCV 1b.
Setting [2] is: Hepatitis C virus, read-out: EC50 1b.
[3] abbreviates: class symbols, read-out: EC50 Range against HCV 1b.

With `COC(C(=O)N1CCC[C@H]1C(=O)Nc1ccc(-c2nnc(-c3ccc(NC(=O)[C@@H]4CCCN4C(=O)C(OC)c4ccccc4)cc3)o2)cc1)c1ccccc1` (stereo partly drawn) [RK-11, (2S,2′S)-N,N′-(1,3,4-oxadiazole-2,5-diyldi-4,1-phenylene)bis(1-(methoxy(phenyl)acetyl)-2-pyrrolidinecarboxamide)], the EC50 under setting [1] lay within 100 to 999 nM.

`O=C(Nc1ccc(-c2nnc(-c3ccc(NC(=O)[C@@H]4CCCN4C(=O)c4cccc(Cl)n4)cc3)o2)cc1)[C@@H]1CCCN1C(=O)c1cccc(Cl)n1` [RK-12, (2S,2′S)-N,N′-(1,3,4-oxadiazole-2,5-diyldi-4,1-phenylene)bis(1-((6-chloro-2-pyridinyl)carbonyl)-2-pyrrolidinecarboxamide)]: the EC50 was 1000 to 10000 nM under setting [1] and 3960 nM under setting [2]. Consider `O=C(Nc1ccc(-c2nnc(-c3ccc(NC(=O)[C@@H]4CCCN4C(=O)c4ccco4)cc3)o2)cc1)[C@@H]1CCCN1C(=O)c1ccco1` [RK-13, (2S,2′S)-N,N′-(1,3,4-oxadiazole-2,5-diyldi-4,1-phenylene)bis(1-(2-furoyl)-2-pyrrolidinecarboxamide)], for which the EC50 under setting [1] was in the range of 100 to 999 nM. The same measure, in the same setting: then `O=C(Nc1ccc(-c2nnc(-c3ccc(NC(=O)[C@@H]4CCCN4C(=O)[C@@H]4CCCO4)cc3)o2)cc1)[C@@H]1CCCN1C(=O)[C@@H]1CCCO1` [RK-14, (2S,2′S)-N,N′-(1,3,4-oxadiazole-2,5-diyldi-4,1-phenylene)bis(1-((2S)-tetrahydro-2-furanylcarbonyl)-2-pyrrolidinecarboxamide)], with 100 to 999 nM; and `O=C(Nc1ccc(-c2nnc(-c3ccc(NC(=O)[C@@H]4CCCN4C(=O)[C@H]4CCCO4)cc3)o2)cc1)[C@@H]1CCCN1C(=O)[C@H]1CCCO1` [RK-15, (2S,2′S)-N,N′-(1,3,4-oxadiazole-2,5-diyldi-4,1-phenylene)bis(1-((2R)-tetrahydro-2-furanylcarbonyl)-2-pyrrolidinecarboxamide)], with 1000 to 10000 nM. With `O=C(Nc1ccc(-c2nnc(-c3ccc(NC(=O)[C@@H]4CCCN4C(=O)[C@H](O)c4ccccc4)cc3)o2)cc1)[C@@H]1CCCN1C(=O)[C@H](O)c1ccccc1` [RK-16, (2S,2′S)-N,N′-(1,3,4-oxadiazole-2,5-diyldi-4,1-phenylene)bis(1-((2R)-2-hydroxy-2-phenylacetyl)-2-pyrrolidinecarboxamide)], the EC50 under setting [1] was < 4.57 nM and the EC50 under setting [2] is < 5 nM. `O=C(Nc1ccc(-c2nnc(-c3ccc(NC(=O)[C@@H]4CCCN4C(=O)[C@@H](O)c4ccccc4)cc3)o2)cc1)[C@@H]1CCCN1C(=O)[C@@H](O)c1ccccc1` [RK-17, (2S,2′S)-N,N′-(1,3,4-oxadiazole-2,5-diyldi-4,1-phenylene)bis(1-((2S)-2-hydroxy-2-phenylacetyl)-2-pyrrolidinecarboxamide)]: the EC50 under setting [1] is 100 to 999 nM.

As to `O=C(Nc1ccc(-c2nnc(-c3ccc(NC(=O)[C@@H]4CCCN4C(=O)c4nc(Cl)cc5ccccc45)cc3)o2)cc1)[C@@H]1CCCN1C(=O)c1nc(Cl)cc2ccccc12` [RK-18, (2S,2′S)-N,N′-(1,3,4-oxadiazole-2,5-diyldi-4,1-phenylene)bis(1-((3-chloro-1-isoquinolinyl)carbonyl)-2-pyrrolidinecarboxamide)], the EC50 under setting [1] was in the range of 1000 to 10000 nM. Same read-out and setting: then `COC(C(=O)N[C@@H](C)C(=O)Nc1ccc(-c2nnc(-c3ccc(NC(=O)[C@H](C)NC(=O)C(OC)c4ccccc4)cc3)o2)cc1)c1ccccc1` (stereo partly drawn) [RK-19, (2S,2′S)-N,N′-(1,3,4-oxadiazole-2,5-diyldi-4,1-phenylene)bis(2-((methoxy(phenyl)acetyl)amino)propanamide)], with 100 to 999 nM; and `C[C@H](NC(=O)c1cccc(Cl)n1)C(=O)Nc1ccc(-c2nnc(-c3ccc(NC(=O)[C@H](C)NC(=O)c4cccc(Cl)n4)cc3)o2)cc1` [RK-20, N,N′-(1,3,4-oxadiazole-2,5-diylbis(4,1-phenyleneimino((2S)-1-oxo-1,2-propanediyl)))bis(6-chloro-2-pyridinecarboxamide)], with 1000 to 10000 nM. `C[C@H](NC(=O)c1ccco1)C(=O)Nc1ccc(-c2nnc(-c3ccc(NC(=O)[C@H](C)NC(=O)c4ccco4)cc3)o2)cc1` [RK-21, N,N′-(1,3,4-oxadiazole-2,5-diylbis(4,1-phenyleneimino((2S)-1-oxo-1,2-propanediyl)))di(2-furamide)]: the EC50 under setting [1] fell in the range of 1000 to 10000 nM. The same measure, in the same setting: under `COc1cc(C(=O)N[C@@H](C)C(=O)Nc2ccc(-c3nnc(-c4ccc(NC(=O)[C@H](C)NC(=O)c5cc(OC)c6ccccc6n5)cc4)o3)cc2)nc2ccccc12` [RK-22, N,N′-(1,3,4-oxadiazole-2,5-diylbis(4,1-phenyleneimino((2S)-1-oxo-1,2-propanediyl)))bis(4-methoxy-2-quinolinecarboxamide)] stands 100 to 999 nM. On the same count and under the same terms, under `C[C@H](NC(=O)Cc1ccccc1)C(=O)Nc1ccc(-c2nnc(-c3ccc(NC(=O)[C@H](C)NC(=O)Cc4ccccc4)cc3)o2)cc1` [RK-23, (2S,2′S)-N,N′-(1,3,4-oxadiazole-2,5-diyldi-4,1-phenylene)bis(2-((phenylacetyl)amino)propanamide)] stands 100 to 999 nM; under `C[C@H](NC(=O)[C@@H](O)c1ccccc1)C(=O)Nc1ccc(-c2nnc(-c3ccc(NC(=O)[C@H](C)NC(=O)[C@@H](O)c4ccccc4)cc3)o2)cc1` [RK-24, (2S,2′S)-N,N′-(1,3,4-oxadiazole-2,5-diyldi-4,1-phenylene)bis(2-(((2S)-2-hydroxy-2-phenylacetyl)amino)propanamide)], 100 to 999 nM.

On to `O=C(Nc1ccc(-c2nnc(-c3ccc(NC(=O)[C@H]4CCCN4C(=O)c4cccc(F)n4)cc3)o2)cc1)[C@H]1CCCN1C(=O)c1cccc(F)n1` [RK-25, (2R,2′R)-N,N′-(1,3,4-oxadiazole-2,5-diyldi-4,1-phenylene)bis(1-((6-fluoro-2-pyridinyl)carbonyl)-2-pyrrolidinecarboxamide)], for which the EC50 under setting [1] lay in the range of 100 to 999 nM.

For `COc1cc(C(=O)N2CCC[C@H](C(=O)Nc3ccc(-c4nnc(-c5ccc(NC(=O)[C@H]6CCCN(C(=O)c7cc(OC)c8ccccc8n7)C6)cc5)o4)cc3)C2)nc2ccccc12` [RK-26, (3S,3′S)-N,N′-(1,3,4-oxadiazole-2,5-diyldi-4,1-phenylene)bis(1-((4-methoxy-2-quinolinyl)carbonyl)-3-piperidinecarboxamide)], under setting [1], the EC50 was 1000 to 10000 nM. Turning to `O=C(Nc1ccc(-c2nnc(-c3ccc(NC(=O)[C@@H]4CCCN4C(=O)c4cc(Cl)ccn4)cc3)o2)cc1)[C@@H]1CCCN1C(=O)c1cc(Cl)ccn1` [RK-27, (2S,2′S)-N,N′-(1,3,4-oxadiazole-2,5-diyldi-4,1-phenylene)bis(1-((4-chloro-2-pyridinyl)carbonyl)-2-pyrrolidinecarboxamide)], the EC50 under setting [1] was in the range of 100 to 999 nM. For the compound `C[C@](O)(C(=O)N1CCC[C@H]1C(=O)Nc1ccc(-c2nnc(-c3ccc(NC(=O)[C@@H]4CCCN4C(=O)[C@](C)(O)c4ccccc4)cc3)o2)cc1)c1ccccc1` [RK-28, (2S,2′S)-N,N′-(1,3,4-oxadiazole-2,5-diyldi-4,1-phenylene)bis(1-((2R)-2-hydroxy-2-phenylpropanoyl)-2-pyrrolidinecarboxamide)], the EC50 is < 4.57 nM under setting [1] and 3 nM under setting [2]. Regarding `C[C@H](NC(=O)c1cccc(F)n1)C(=O)Nc1ccc(-c2nnc(-c3ccc(NC(=O)[C@H](C)NC(=O)c4cccc(F)n4)cc3)o2)cc1` [RK-29, N,N′-(1,3,4-oxadiazole-2,5-diylbis(4,1-phenyleneimino((2S)-1-oxo-1,2-propanediyl)))bis(6-fluoro-2-pyridinecarboxamide)], the EC50 under setting [1] fell in the range of 1000 to 10000 nM. On the same count and under the same terms, then `C[C@H](NC(=O)[C@@](C)(O)c1ccccc1)C(=O)Nc1ccc(-c2nnc(-c3ccc(NC(=O)[C@H](C)NC(=O)[C@@](C)(O)c4ccccc4)cc3)o2)cc1` [RK-30, (2S,2′S)-N,N′-(1,3,4-oxadiazole-2,5-diylbis(4,1-phenyleneimino((2S)-1-oxo-1,2-propanediyl)))bis(2-hydroxy-2-phenylpropanamide)], with 100 to 999 nM; and `C[C@H](NC(=O)[C@](C)(O)c1ccccc1)C(=O)Nc1ccc(-c2nnc(-c3ccc(NC(=O)[C@H](C)NC(=O)[C@](C)(O)c4ccccc4)cc3)o2)cc1` [RK-31, (2R,2′R)-N,N′-(1,3,4-oxadiazole-2,5-diylbis(4,1-phenyleneimino((2S)-1-oxo-1,2-propanediyl)))bis(2-hydroxy-2-phenylpropanamide)], with 100 to 999 nM.

Regarding `COc1cccc2c(C(=O)N3CCC[C@H]3C(=O)Nc3ccc(-c4nnc(-c5ccc(NC(=O)[C@@H]6CCCN6C(=O)c6nc(Cl)cc7c(OC)cccc67)cc5)o4)cc3)nc(Cl)cc12` [RK-32, (2S,2′S)-N,N′-(1,3,4-oxadiazole-2,5-diyldi-4,1-phenylene)bis(1-((3-chloro-5-methoxy-1-isoquinolinyl)carbonyl)-2-pyrrolidinecarboxamide)], the EC50 under setting [1] lay in the range of 100 to 999 nM.

For the compound `COc1cccc2c(C(=O)N[C@@H](C)C(=O)Nc3ccc(-c4nnc(-c5ccc(NC(=O)[C@H](C)NC(=O)c6nc(Cl)cc7c(OC)cccc67)cc5)o4)cc3)nc(Cl)cc12` [RK-33, N,N′-(1,3,4-oxadiazole-2,5-diylbis(4,1-phenyleneimino((2S)-1-oxo-1,2-propanediyl)))bis(3-chloro-5-methoxy-1-isoquinolinecarboxamide)], under “Hepatitis C virus, class symbols, read-out: EC50 Range against HCV 1b”, the EC50 lay within 100 to 999 nM. Regarding `C[C@H](NC(=O)[C@@H]1CCCO1)C(=O)Nc1ccc(-c2nnc(-c3ccc(NC(=O)[C@H](C)NC(=O)[C@@H]4CCCO4)cc3)o2)cc1` [RK-34, (2S,2′S)-N,N′-(1,3,4-oxadiazole-2,5-diylbis(4,1-phenyleneimino((2S)-1-oxo-1,2-propanediyl)))ditetrahydro-2-furancarboxamide], the EC50 under setting [3] fell in the range of 1000 to 10000 nM.

For the compound `C[C@H](NC(=O)[C@H]1CCCO1)C(=O)Nc1ccc(-c2nnc(-c3ccc(NC(=O)[C@H](C)NC(=O)[C@H]4CCCO4)cc3)o2)cc1` [RK-35, (2R,2′R)-N,N′-(1,3,4-oxadiazole-2,5-diylbis(4,1-phenyleneimino((2S)-1-oxo-1,2-propanediyl)))ditetrahydro-2-furancarboxamide], under setting [3], the EC50 is 1000 to 10000 nM.
